Results published in US20160038563A1, “MOLECULAR TARGETS FOR HEALING OR TREATING WOUNDS” (University College Cardiff Consultants Limited, priority 2010, published 2016).
Entries after “also recorded” stand apart in the source; their conditions may differ.

Legend:
HaCaT cells [1] = assay: ECIS cell adhesion assay; assay type: cell-based, human
Description: (§1) • 1. Cells and Human keratinocytes and melanoma Cells (HaCaT-from The German Cancer Institute/Cell Service, Germany and A431—from ATCC), human vascular endothelial cell, HECV (from Interlab, Italy) were used. Recombinant human HGF was from the research laboratory. nWASP inhibitors, Wiskostatin and 187-1 were from Merck Pharmaceuticals and TOCRIS, respectively. Tissue collection and preparation of RNA/cDNA bank from human wound/skin tissues. Fresh tissues from abnormal/chronic wounds (n=14), acute wounds (n=10) and normal skin from healthy volunteers (n=10) were collected under an approval from the local ethical committee (Ethical approval ID: 05/WSE03/92) and stored in −80° C. until use. Written informed consent was obtained from each patient who agreed for a biopsy to be taken. Tissues were frozen sectioned on a cryostat (Leica). A portion of the sections were kept for histological analysis. Approximate 20 sections were pooled and homogenised using a hand-held homogenizer using a procedure to extract RNA from the tissues. RNA extracted from the tissues was quantified and cDNA was subsequently generated using a RT kit. Abnormal/chronic wound tissues were from patients with abnormal/chronic leg ulcers. Acute wound tissues were obtained from patients with acute surgical wounds after undergoing excision of pilonidal disease. Normal tissues were from normal volunteer's normal skin. • 2. Analysis of nWASP gene transcripts was carried out using conventional and quantitative real time PCR (Icycler IQ, Bio-Rad) on human wound and skin tissues and cells. […] The study adopted the Ampliflor quantitation technology, in which one set of gene specific primers and a Uniprimer probes were used, in combination with quantitative PCR master mix. […] An internal standard was employed for quantitation purpose. […] The first was recorded immediately after plating of the cells into each well at 3 frequencies: 400 Hz, 4,000 Hz, and 40,000 Hz. […]

HaCaT cells [2] = assay: ECIS cell migration assay (electric wounding) and micromotion; assay type: cell-based, human; conditions: for resistance following wounding (migration): measured at 400 Hz; for cell migration of transfected HaCaT cells: vs wild type HaCaT, electric wounding, ECIS
Description: • 1. Cells and Human keratinocytes and melanoma Cells (HaCaT-from The German Cancer Institute/Cell Service, Germany and A431—from ATCC), human vascular endothelial cell, HECV (from Interlab, Italy) were used. Recombinant human HGF was from the research laboratory. nWASP inhibitors, Wiskostatin and 187-1 were from Merck Pharmaceuticals and TOCRIS, respectively. Tissue collection and preparation of RNA/cDNA bank from human wound/skin tissues. Fresh tissues from abnormal/chronic wounds (n=14), acute wounds (n=10) and normal skin from healthy volunteers (n=10) were collected under an approval from the local ethical committee (Ethical approval ID: 05/WSE03/92) and stored in −80° C. until use. Written informed consent was obtained from each patient who agreed for a biopsy to be taken. Tissues were frozen sectioned on a cryostat (Leica). A portion of the sections were kept for histological analysis. Approximate 20 sections were pooled and homogenised using a hand-held homogenizer using a procedure to extract RNA from the tissues. RNA extracted from the tissues was quantified and cDNA was subsequently generated using a RT kit. Abnormal/chronic wound tissues were from patients with abnormal/chronic leg ulcers. Acute wound tissues were obtained from patients with acute surgical wounds after undergoing excision of pilonidal disease. Normal tissues were from normal volunteer's normal skin. • 2. Analysis of nWASP gene transcripts was carried out using conventional and quantitative real time PCR (Icycler IQ, Bio-Rad) on human wound and skin tissues and cells. For conventional PCR, primers used were: NWASPF8 (5′agtccctatcactttcctc′3) (SEQ ID NO 1) and NWASPR8 (5′[…]′3) (SEQ ID NO 2) and NWASPF9 (5′[…]′3) (SEQ ID NO 3) and NWASPR9 (5′[…]′3) (SEQ ID NO 4). For Q-PCR primers used were nWASPF1 and NWASPZR1 (5′[…]′3) (SEQ ID NO 5) and (5′[…]′3) (SEQ ID NO 6). • 3. The study adopted the Ampliflor quantitation technology, in which one set of gene specific primers and a Uniprimer probes were used, in combination with quantitative PCR master mix. The reaction was carried out using ICycler^IQ (Bio-Rad). An internal standard was employed for quantitation purpose. In all the assays, GAPDH and actin were amplified and used as the house keeping controls. Levels of a specific gene was normalised to the expression level of GAPDH in the respective sample for example, nWASP, GAPDH and actin transcripts (mRNA) were measure in the same sample. nWASP was then normalised to GAPDH. • 4. Evaluation of cells response to wound stress after n-WASP is targeted. Here, an in vitro cell model, based on the ECIS system, was adopted. Briefly, cells were allowed to sit in the electric arrays and an 8E10 format was used. Cells in fixed number and fixed volume of culture medium were added into each of the respective wells, which had either control medium or a specific inhibitor to N-WASP, namely Wiskostatin or 187-1. In selected wells, a cell migration inducer, HGF was also included in the absence or presence of the nWASP inhibitors. Cells were investigated for the following functions: the adhesiveness to the matrix surface and the migration capacity. The first was recorded immediately after plating of the cells into each well at 3 frequencies: 400 Hz, 4,000 Hz, and 40,000 Hz. The frequencies were chosen following a frequency scanning (FIG. 3). Two main cell functions were thus tested here: the adhesiveness of the cells to matrix and cell migration. • 5. Creation of cell models. We have created a new cell model, based on a human keratinocyte cell line, HaCaT, which expressed high levels of n-WASP. By using anti-nWASP transgenes, we successfully knocked out the expression of n-WASP from the cells and subsequently used the cells in our testing. Briefly, the secondary structure (FIG. 2) of human nWASP was generated using Zuker's RNA mFold software. Three suitable sites for targeting within the nWASP mRNA were identified. […]

HaCaT cells [3] = assay: growth of HaCaT cells; assay type: cell-based, human
HECV cells = assay: endothelial tubule forming assay, HECV wild type (negative for nWASP); assay type: cell-based, human; conditions: HECV cells negative for nWASP expression
[4] = in vivo tolerance test in CD-1 athymic mice; conditions: intraperitoneal, daily, 1 and 10 uM, two weeks
Method: (§2) First, the main tolerance tests were conducted using the CD-1 athymic mice (Charles River Laboratories), owing to their slow and steady rate of growth and easier to observe changes in the skin (hairless) and other possible side effects. Briefly, CD-1 of 4-6 weeks old, 20 g in weight, were housed in filter topped cages. […] Both compounds were given at […] final concentration in 100 ul in volume. […] CD-1 were observed daily, weighed twice weekly. An additional tolerance and efficacy test was carried out using the db/db strain.

[5] = tolerance in db/db strain; assay type: in vivo, db/db mice; conditions: administered systemically (IP), efficacy study
Method: as §2
(§3) The diabetic strain of db/db was obtained from Harlan. 4-6 weeks old with body weight at 20 g were used. […] Briefly, after being housed for a week, the db/db mice were first ear-pieced using an ear puncher, in order to create a wound (hole) of 1 mm in diameter. The following day after wound creation, all the db/db were weighed, wound photographed using a digital camera. Treatment was given systemically (by IP injection) or topically (by manually applying the compounds in gel into the wound area). Both treatments were given every other day. Images were obtained weekly. The size of the wounds was determined using an image analysis software. Data are given in two ways:
Wiskostatin was first dissolved in DMSO at concentration of 5 mg/ml. The DMSO solution was then gradually diluted in BSS in order to avoid precipitation. […]

wound in db/db mice = assay: in vivo efficacy test, wound healing (ear punch wound); conditions: for size of wounds vs control: after three weeks
Description: as §3
1. the area of the wounds in pixels. Two sample student t test was used for statistical analysis. 2. change of the size of wound over the starting point calculated using: (area at a given point—area at the starting point)/(area of the starting point)×100. Bonferroni model was used for data analysis.
Wiskostatin was first dissolved in DMSO at concentration of 5 mg/ml. The DMSO solution was then gradually diluted in BSS in order to avoid precipitation. The solutions were prepared such that each 100 ul contained the correct amount of compounds and was aliquatted and stored at −20° C. until used. The compounds were injected every other day by the IP route. […] Treatment was given every other working day (Monday, Wednesday and Friday) and the images obtained on Wednesday.
For topical application, we used two conventional carrier gels (purchased from Pharmacy of University Hospital of Wales) that are currently used in wound care. […] For use, a small amount (150 ul) of the gel was applied to the wound area and gently rubbed in using fingers. Treatment was given every other working day (Monday, Wednesday and Friday) and the images obtained on Wednesday.

[6] = test system: HECV cells transfected and forced to express nWASP; assay: endothelial tubule forming assay, HECV forced to express nWASP; assay type: cell-based, human; conditions: nWASP expressing HECV cells, after 48 hours
nWASP mRNA = assay: knock down of nWASP mRNA in HaCaT cells by anti-nWASP transgenes (RT-PCR); assay type: cell-based, human; conditions: HaCaT cells after transfection (electroporation)
Description: as §1, with “Written informed consent was obtained from each patient who agreed for a biopsy to be taken. Tissues were frozen sectioned on a cryostat (Leica). A portion of the sections were kept for histological analysis. Approximate 20 sections were pooled and homogenised using a hand-held homogenizer using a procedure to extract RNA from the tissues.” left out, “Abnormal/chronic wound tissues were from patients with abnormal/chronic leg ulcers. Acute wound tissues were obtained from patients with acute surgical wounds after undergoing excision of pilonidal disease. Normal tissues were from normal volunteer's normal skin. • 2.” left out

## CN(C)C[C@H](O)Cn1c2ccc(Br)cc2c2cc(Br)ccc21 (racemic) [Wiskostatin]
HaCaT cells [1]; Wiskostatin 1, 10, 100 nM, 400, 4,000, 40,000 Hz, particularly at 40,000 Hz
  adhesiveness of HaCaT cells to matrix surface: increased the adhesiveness
HaCaT cells [1]; with HGF 40 ng/ml, Wiskostatin 1, 10, 100 nM
  HGF-induced adhesiveness of HaCaT cells: further increased the adhesiveness
HaCaT cells [2]; 1 nM
  resistance following wounding (migration): rapid rise of resistance
HaCaT cells [2]; 10 nM
  resistance following wounding (migration): rapid rise of resistance
HaCaT cells [2]; electric wounding assay
  migration of HaCaT cells: Increased the Migration
HaCaT cells [3]
  growth of HaCaT cells: limited inhibitory effect on the growth and only at a high concentration
HaCaT cells [3]; all effects on cell functions
  effective concentrations relative to those causing toxicity and growth changes: far below those that may cause toxicity and growth changes
HECV cells
  tubule formation: neither 187-1 nor Wiskostatin had a major impact
[4]
  tolerability: Well Tolerated
[5]
  side effects: without Producing any Side Effects
Wound in db/db mice; Wiskostatin systemic 1 μM, p=0.017
  size of wounds vs control: significantly reduced the size of the wounds; also recorded: significant reduction of the size of wound
Wound in db/db mice; Wiskostatin systemic 10 μM, p=0.04
  size of wounds vs control: significantly reduced the size of the wounds; also recorded: significant reduction of the size of wound
Wound in db/db mice; Wiskostatin topical-A gel, p=0.044
  size of wounds vs control: significant effect
Wound in db/db mice; Wiskostatin topical-B gel, p=0.044
  size of wounds vs control: significant effect
Wound in db/db mice; administered systemically (IP), every other day
  wound healing: Significantly Accelerated Wound Healing
Wound in db/db mice; administered topically in gel
  wound healing: Significant Effect

## HGF: recombinant human HGF, cell migration inducer / positive control
HaCaT cells [1]; HGF 40 ng/ml alone vs control cells
  adhesiveness of HaCaT cells: increased the adhesiveness
HaCaT cells [2]; HGF 40 ng/ml
  migration of control HaCaT cells: increased the migration of control HaCaT cells
  migration of nWASP transgene carrying HaCaT cells: some limited effect

## Wiskostatin
[6]
  tubule forming: strong stimulatory effect on tubule forming

B1: transgene-2: anti-nWASP antisense-hammerhead ribozyme/RNA transgene, SEQ ID NO 18, cloned into pEF6/V5/His TOPO (nucleic acid, listed as Homo sapiens)
DNA: CTGCAGACAAGCAACACCACTGCACTTCTTTCTGATGAGTCCGTGAGGACGAAACCACATACAGTTCCGATCTGCTGCATATAACTAGT
nWASP mRNA
  knocking down nWASP mRNA/transcript: active in knocking down; also recorded: highly active
HaCaT cells [2]
  cell migration of transfected HaCaT cells: dramatic increase in cell migration

B2: transgene-1: anti-nWASP antisense-hammerhead ribozyme/RNA transgene, SEQ ID NO 17, cloned into pEF6/V5/His TOPO (nucleic acid, listed as Homo sapiens)
DNA: CTGCAGGAGTTCTTTGACCACATACAGTTCCCTGATGAGTCCGTGAGGACGAAATCTGCTGCATATAACTGCACCACACTAGT
nWASP mRNA
  knocking down nWASP mRNA/transcript: active in knocking down

B3: transgene-3: anti-nWASP antisense-hammerhead ribozyme/RNA transgene, SEQ ID NO 19, cloned into pEF6/V5/His TOPO (nucleic acid, listed as Homo sapiens)
DNA: CTGCAGGTGCAGCTGTGGGAGCTCTTCTGATGAGTCCGTGAGGACGAAAAGGTGGTGGGGGAGGAGCGCCTCTTCCCCTAGCCTAGT
HaCaT cells [2]
  cell migration of transfected HaCaT cells: dramatic increase in cell migration
